Experimental data from patent US20250255876A1, “COMPOSITIONS AND METHODS FOR CANCER TREATMENT” (ARIEL SCIENTIFIC INNOVATIONS LTD., priority 2021, published 2025).

What was measured:
Type in all cases: cell-based
[1] = system: U2OS cells; assay: Colony survival assay, U2OS cells; conditions: varying cisplatin, 48 hours
Method: H1975 cells were plated in 24-well plates at 50,000 cells/well (for 50 µM inhibitor treatment) or 20,000 cells/well (for […] inhibitor treatment). U2OS and A549 cells were plated in 24-well plates at 5000 cells/well. The next day, cells were treated with varying concentrations of cisplatin, either with or without added inhibitor compound. After 48 hours of cisplatin+compound treatment, the cells were washed 3 times with PBS×1 and fresh media applied. After 4 days of recovery, the cells were stained with methylene blue and imaged using a Nikon SMZ25 stereomicroscope. The images were analyzed using the ImageJ (National Institutes of Health) area measurement tool to quantify total colony size in each well.

[2] = target: MAD2L2-Rev1 complex (Homo sapiens, UniProt Q9UI95); assay: GFP-Trap co-immunoprecipitation of YFP-Rev1 and myc-MAD2L2 in HEK293 cells; parameters: expressed in transfected cells; host or cells: HEK293; conditions: 50 μM; for reduction of MAD2L2-Rev1 binding (complex formation): 24 h
Sequence of MAD2L2-Rev1 complex (Q9UI95 whole entry, one chain of several): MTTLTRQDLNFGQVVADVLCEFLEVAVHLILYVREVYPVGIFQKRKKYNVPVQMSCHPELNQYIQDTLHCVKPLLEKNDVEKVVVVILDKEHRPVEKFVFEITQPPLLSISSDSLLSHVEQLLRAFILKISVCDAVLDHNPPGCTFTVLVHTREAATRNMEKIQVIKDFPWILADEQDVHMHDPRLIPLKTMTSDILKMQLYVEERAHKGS
Method: HEK293 cells were plated in 10-cm plates at 40-50% confluency. The next day, the cells were co-transfected with YFP-Rev1 and myc-MAD2L2 plasmids. After 24 hours, 50 µM inhibitor compounds (or DMSO negative control) were applied to the cells and growth continued for another 24 hours. The cells were then harvested and protein extraction was performed, followed by IP pulldown of the YFP-Rev1 species with GFP-Trap A conjugated agarose beads, to assess the levels of Co-IP'ed myc-REV7.
Medium/DMEM (Biological Industries Israel Beit Haemek; 01-052-1A) with 4.5 g/l D-glucose, 4 mM L-glutamine, 10% fetal bovine serum (Biological Industries Israel Beit Haemek; 04-007-1A), and 1% penicillin/streptomycin. The H1975 cells were cultured in RPMI 1640 medium (Biological Industries Israel Beit Haemek; 01-100-1A) with 4.5 g/l D-glucose, 4 mM L-glutamine, 10% fetal bovine serum (Biological Industries Israel Beit Haemek; 04-007-1A), and 1% penicillin/streptomycin. Transfections of HEK293 cells with plasmid DNA were performed using the Avalanche® Everyday Transfection Reagent (EZT-EVDY-1); according to the manufacturer's protocol. Briefly, cells were passaged the day before transfection to reach a confluency of 60-70%. The next day, the selected plasmid DNA was incubated in serum-free media with the recommended volume of transfection reagent for 20 minutes at room temperature. This transfection mix was gently added to the prepared cell culture plate(s) for continued incubation at 37° C. For co-IP experiment plates, after 24 hours, the relevant compound (DMSO vehicle, c #2, or c #3) was added in pre-warmed media, and the transfected plates were incubated for another 24 hours at 37° C. until harvesting.
HEK293 cells were harvested 48 h following co-transfection and lysed in extraction buffer (50 mM Tris pH 8, 150 mM NaCl, 20 mM EDTA, 50 mM NaF, 1% TritonX) supplemented with Merck® 1000×protease inhibitor (539134). Cells were lysed on ice for 30 minutes and centrifuged at 20,000 g for 30 minutes at 4° C. For immunoblotting, extracts were boiled in Laemmli buffer for 5 min. Equal amounts of protein sample (30 μg) were loaded on 8%-12% acrylamide gel and transferred to a nitrocellulose membrane (Amersham). For immunoprecipitations, clarified lysates were supplemented with 7 μl of equilibrated GFP-Trap antibody-conjugated agarose beads (Chromotek; gta-20) and incubated for 1-2 h at 4° C. Beads were washed three times in PBS buffer and boiled in Laemmli buffer for 5 minutes. The following primary antibodies were used for immunoblotting: Myc (Santa Cruz; SC-40) 1:1000 dilution, GFP (Santa Cruz, SC-9996) 1:1000 dilution, MAD2L2 (ProteinTech; 12683-1-AP). […]

[3] = system: γH2AX foci in A549 cells; assay: γH2AX foci immunofluorescence, A549 cells; conditions: for cells with more than 80 foci or very bright signal, combined treatment / number of γH2AX foci/cell, combined treatment: A549, 10 μM cisplatin + 50 μM compound; for number of γH2AX foci/cell, combined treatment: overnight
Method: H1975 and A549 cells were grown on glass coverslips in 12-well plates with the appropriate media, and fixed in 4% paraformaldehyde for 10 minutes at room temperature. Cells were permeabilizedin 0.5% TritonX100 in PBS×1 for 10 minutes at room temperature and then blocked in 5% BSA in 0.1% PBS×1-Tween for 1 hour at room temperature. Anti-phospho-Histone H2A.X primary antibody ([…]; 05-636-25UG) diluted 1:400 in 5% BSA in 0.1% PBS×1-Tween was added for 1 hour at room temperature. Fluorescent-dye conjugated secondary antibody was applied for 1 hour at room temperature. The coverslips were washed between each step with PBS×1. Nuclei were stained with DAPI (1:2000 dilution) at room temperature in the dark for 3 minutes. Coverslips were mounted on glass slides and imaged using an Olympus 1×81 microscope. For all treatments, cells with fewer than 80 foci were scored manually (FIG. 4B), and cells with more than 80 foci and very bright signals were scored automatically by using the “Analyze Particles” function in ImageJ (National Institutes of Health) after setting a suitable threshold.
Next, the inventors examined whether combined treatment of cisplatin with c #2 or c #3 correlates with an increase in DNA damage, which might explain the compound's sensitization effect. A549 and H1975 cell lines were exposed to combined overnight treatment with cisplatin and c #2 or c #3, and the levels of γH2AX foci were monitored. In both cell lines, a clear increase in the number of foci was observed after combined treatment, compared to cells treated with cisplatin or compounds alone (FIG. 12A).
Combined treatment of cisplatin with c #3 correlates with an increase in DNA damage. Levels of γ-H2AX foci, a marker for DNA double-strand breaks, were compared in H1975, A549 and B16F10 cell lines.

CNc1nc(N2CCCCC2)nc(-n2cnc(SCC(N)=O)n2)n1 [Compound 2]
cell survival with cisplatin plus inhibitor [1]: reduction in cell survival | Rev1-Rev7 binding interaction (in words) [2]: reduction in Rev1-Rev7 binding interaction | reduction of MAD2L2-Rev1 binding (complex formation) [2]: about 50% | cells with more than 80 foci or very bright signal, combined treatment [3]: significantly more abundant | number of γH2AX foci/cell, combined treatment [3]: significant increase in the number of γH2AX foci/cell

Cc1oc(-c2ccco2)nc1CC(=O)N[C@@H](C(=O)O)c1ccccc1 [Compound 3]
cell survival with cisplatin plus inhibitor [1]: reduction in cell survival | Rev1-Rev7 binding interaction (in words) [2]: reduction in Rev1-Rev7 binding interaction | reduction of MAD2L2-Rev1 binding (complex formation) [2]: about 80% | increase in γ-H2AX foci/cell in co-treated cells ([3]; A549, 10 μM cisplatin + 50 μM c #3, 16 h): 2 fold | cells with more than 80 foci or very bright signal, combined treatment [3]: significantly more abundant | number of γH2AX foci/cell, combined treatment [3]: significant increase in the number of γH2AX foci/cell | γ-H2AX signal, c #3 alone ([3]; A549, c #3 alone): no effect on the γ-H2AX signal
